According to patent US20100173937A1, “USE OF TETRAKIS-QUATERNARY AMMONIUM SALTS AS PAIN MODULATING AGENTS” (University of Kentucky Research Foundation, priority 2008, published 2010):

Experiments:
[1] = system: mechanical hyperalgesia in CCI rats; assay: rat chronic constriction nerve injury (CCI) model of neuropathic pain, paw pressure test; format: in vivo; settings: intraperitoneal, 3.6-3600 μg/kg, 15-120 minutes after injection, FIGS. 3 and 4
Method: A rat model of neuropathic pain (the chronic constriction nerve injury model; CCI) was used. Unilateral peripheral mononeuropathy was produced on the left hind limb according to the method described by Bennett and Xie (1988). Under pentobarbital anesthesia (40 mg/kg, IP) ligation of the siatic nerve and sham surgery were performed in each rat on the left and right hind paws, respectively. Proximal to the sciatice trifurcation, the nerve (about 7 mm) was freed from adhering tissue and four loose ligatures were tied around the nerve (1 mm apart) using 4.0 chromic catgut, barely constricting the diameter of the nerve. In sham surgery, the right sciatic nerve was exposed using the same procedure, but the nerve was not ligated. The incision was closed in layers with silk thread 3.0. […] No severe motor impairment was observed.
The presence of a decreased threshold to mechanical noxious stimuli (mechanical hyperalgesia) was evaluated by the Randal and Selitto (1957) method (paw pressure test) in CCI rats. The hind paw was placed between a flat surface and a blunt pointer in the Basile Analgesimeter (UGO Basile, Italy) and increasing pressure (32 g/s) was applied to the dorsal side of the paw. Vocalization was used as the end point (vocalization threshold, VT, g). […] Responses were assessed prior to (baseline, taken twice) and at 15, 30, 45, 60 and 120 minutes after injection. […]

[2] = system: formalin-induced flinching; assay: rat model of tonic inflammatory pain (the formalin test); format: in vivo; settings: intraperitoneal, 3.6-3600 μg/kg, 15 minutes prior to formalin, phase 1 and 2, FIGS. 1 and 2
Method: A rat model of tonic inflammatory pain (the formalin test) was used in this study (Wheeler-Aceto and Cowan, 1991). Fifty μl of formalin (5%) was injected subcutaneously (SC) into the dorsal surface of the left hind paw. This procedure typically produces a biphasic behavioral response consisting of flinching, lifting and licking. The first phase (0-10 minutes) results from direct stimulation of nociceptors (nociceptive pain) whereas the second phase (20-60 minutes) is thought to involve central sensitization. Rats (3/dose) were pretreated 15 minutes prior to formalin (SC) injection with ZZ-204G (3.6-3600 μg/kg) administered by the IP route. ZZ-204G is as below:
Saline served as control. Incidences of formalin-induced flinching were counted continuously in 5 minute intervals for 60 minutes. Each rat received only one treatment.

C(#Cc1cc(C#CCCC[n+]2cccc(-c3ccccc3)c2)c(C#CCCC[n+]2cccc(-c3ccccc3)c2)cc1C#CCCC[n+]1cccc(-c2ccccc2)c1)CCC[n+]1cccc(-c2ccccc2)c1.[Br-].[Br-].[Br-].[Br-] [ZZ-204G]
antihyperalgesic effect in the rodent chronic constriction nerve injury model (vocalization threshold, paw pressure test) [1]: antihyperalgesic effect
analgesic effect in the rodent formalin tonic inflammatory pain model (formalin-induced flinching) [2]: analgesic effect
